Measurements from ChEMBL document CHEMBL1201862, “PubChem BioAssay data set” (2004).
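Five concentrations, 48 hours, 96-well plates. At the GI50, growth is halved.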 Calls of active or inactive are those of the source. Cut-off read from the data, not from the text of the source: active = GI50 up to about 1.1 µM and inactive = higher.

Key:
Test in all cases: NCI-60 cell line screen, 48 h
[1] = system: COLO 205
[2] = system: OVCAR-4
[3] = system: A498
[4] = system: HL-60
[5] = system: IGROV-1
[6] = system: UACC-257
[7] = system: HOP-92
[8] = system: SNB-75
[9] = system: LOX IMVI
[10] = system: SK-MEL-5
[11] = system: OVCAR-3
[12] = system: SK-MEL-28
[13] = system: HT-29
[14] = system: A549
[15] = system: MOLT-4
[16] = system: SK-MEL-2
[17] = system: NCI-H460

Row | Structure (SMILES) | GI50 [1] | GI50 [2] | GI50 [3] | GI50 [4] | GI50 [5] | GI50 [6] | GI50 [7] | GI50 [8] | GI50 [9] | GI50 [10] | GI50 [11] | GI50 [12] | GI50 [13] | GI50 [14] | GI50 [15] | GI50 [16] | GI50 [17]
1 | OCCN1CCN(CC/C=C2/c3ccccc3Sc3ccc(Cl)cc32)CC1 | 9.73 µM (inactive) | 17.2 µM (inactive) | 14.5 µM (inactive) | 1.76 µM (inactive) | 15.2 µM (inactive) | 2.52 µM (inactive) | 8.45 µM (inactive) | 3.69 µM (inactive) | 8.81 µM (inactive) | 5.89 µM (inactive) | 14.7 µM (inactive) | 1.87 µM (inactive) | 2.57 µM (inactive) | 15.6 µM (inactive) | 11.4 µM (inactive) | 14.9 µM (inactive) | 5.93 µM (inactive)
2 | O=C(O)Cc1cc(=O)[nH]c2c1/C(=N/O)CCC2 |  |  |  | > 100 µM (inactive) | > 100 µM (inactive) | > 100 µM (inactive) | > 100 µM (inactive) |  |  | > 100 µM (inactive) | > 100 µM (inactive) | > 100 µM (inactive) | > 100 µM (inactive) | > 100 µM (inactive) | > 100 µM (inactive) | > 100 µM (inactive) | > 100 µM (inactive)
3 | Cc1cc2nc3c(=O)n(C)c(=O)nc-3n(-c3ccc(Cl)cc3)c2cc1C | 2.24 µM (inactive) | 5.16 µM (inactive) | 31.1 µM (inactive) | 3.34 µM (inactive) | 14.6 µM (inactive) | 6.75 µM (inactive) | 13.9 µM (inactive) | 11.4 µM (inactive) |  | 1.72 µM (inactive) | 2.57 µM (inactive) | 15.2 µM (inactive) | 3.51 µM (inactive) | 3.52 µM (inactive) | 11.2 µM (inactive) | 11.8 µM (inactive) | 3.3 µM (inactive)
4 | CCOC(=O)c1sc(Nc2cc(Cl)ccc2Cl)nc1C | > 100 µM (inactive) | > 100 µM (inactive) | > 100 µM (inactive) | > 100 µM (inactive) | 73.1 µM (inactive) | 81.8 µM (inactive) | 22.6 µM (inactive) | 15.6 µM (inactive) | > 100 µM (inactive) |  | 84.1 µM (inactive) | > 100 µM (inactive) | 50.2 µM (inactive) | 72.3 µM (inactive) | 29.6 µM (inactive) | 95.1 µM (inactive) | > 100 µM (inactive)
5 | C=C1C2Oc3ccccc3C1N(c1ccccc1)O2 (stereo not drawn) | 48.5 µM (inactive) | 20 µM (inactive) |  | 30.3 µM (inactive) | 34.4 µM (inactive) | 40.6 µM (inactive) |  | 43.8 µM (inactive) | 13.7 µM (inactive) |  | 32.3 µM (inactive) | 58.1 µM (inactive) | 23 µM (inactive) | 30.4 µM (inactive) | 20 µM (inactive) | 9.14 µM (inactive) | 20.8 µM (inactive)
6 | CCCCc1c2c(nc3c1CCCC3=O)C(=O)CCC2 | > 100 µM (inactive) | > 100 µM (inactive) | > 100 µM (inactive) | > 100 µM (inactive) | > 100 µM (inactive) | > 100 µM (inactive) | > 100 µM (inactive) | 62.4 µM (inactive) | > 100 µM (inactive) | > 100 µM (inactive) | > 100 µM (inactive) | > 100 µM (inactive) | > 100 µM (inactive) | > 100 µM (inactive) | > 100 µM (inactive) | > 100 µM (inactive) | > 100 µM (inactive)
7 | CCCCCCCCCCNC(=S)OC |  | 47.2 µM (inactive) | 46.2 µM (inactive) | 16.7 µM (inactive) | 25.7 µM (inactive) | 23.8 µM (inactive) | 13.4 µM (inactive) | 27.4 µM (inactive) | 15.8 µM (inactive) | 23 µM (inactive) |  | 51.2 µM (inactive) | 34.3 µM (inactive) | 34.3 µM (inactive) | 5.83 µM (inactive) |  | > 100 µM (inactive)
8 | Cc1ccc(C)c(N2C(=O)C(=O)C(c3nc4ccccc4o3)/C(=N\NC(=O)c3ccccc3O)C2=O)c1 (stereo not drawn) | 24.2 µM (inactive) | 11.7 µM (inactive) | 13 µM (inactive) | < 0.01 µM (active) | 6.52 µM (inactive) | 23 µM (inactive) | 41.7 µM (inactive) | 5.7 µM (inactive) | 32.4 µM (inactive) | 38.5 µM (inactive) | 16.6 µM (inactive) | > 100 µM (inactive) | 32.1 µM (inactive) | 13.6 µM (inactive) | 12.8 µM (inactive) | 29.6 µM (inactive) | 
9 | Cc1cc(N(CCC#N)CCC#N)ccc1/C=C1/N=C(c2ccccc2)N(N)C1=O | > 100 µM (inactive) | 34.8 µM (inactive) | > 100 µM (inactive) | 27 µM (inactive) | 79.8 µM (inactive) | > 100 µM (inactive) | 30 µM (inactive) | 21.1 µM (inactive) | 49.3 µM (inactive) | > 100 µM (inactive) | > 100 µM (inactive) | > 100 µM (inactive) | > 100 µM (inactive) | 84.1 µM (inactive) | > 100 µM (inactive) | > 100 µM (inactive) | 
10 | CCN(CC)CCCNC(=O)C1COc2cc(-c3cc(=O)c4ccccc4o3)ccc2O1 (stereo not drawn) | 25.1 µM (inactive) | 72.6 µM (inactive) | 48.2 µM (inactive) | 36.9 µM (inactive) | 68.1 µM (inactive) | 21.6 µM (inactive) | > 100 µM (inactive) | 45.9 µM (inactive) | 23.6 µM (inactive) | 19.7 µM (inactive) | 93.5 µM (inactive) | 20.6 µM (inactive) | 41.7 µM (inactive) | 44.1 µM (inactive) | 33.4 µM (inactive) |  | > 100 µM (inactive)
11 | O=C(O)/C(Cl)=C(\Cl)C(=O)c1ccccc1 | > 100 µM (inactive) | > 100 µM (inactive) | > 100 µM (inactive) | > 100 µM (inactive) | > 100 µM (inactive) | > 100 µM (inactive) | > 100 µM (inactive) | > 100 µM (inactive) | > 100 µM (inactive) | > 100 µM (inactive) | > 100 µM (inactive) | > 100 µM (inactive) | > 100 µM (inactive) | > 100 µM (inactive) | > 100 µM (inactive) | > 100 µM (inactive) | > 100 µM (inactive)
12 | CC(=O)c1cc([N+](=O)[O-])ccc1OCC(=O)O | > 100 µM (inactive) | > 100 µM (inactive) | > 100 µM (inactive) | > 100 µM (inactive) | > 100 µM (inactive) | > 100 µM (inactive) | > 100 µM (inactive) | > 100 µM (inactive) | > 100 µM (inactive) | > 100 µM (inactive) | > 100 µM (inactive) | > 100 µM (inactive) | > 100 µM (inactive) | > 100 µM (inactive) | > 100 µM (inactive) | > 100 µM (inactive) | > 100 µM (inactive)
13 | CC(C)c1cccc2sc(NC(=O)C(=O)CC(=O)c3ccc(F)cc3)nc12 | > 100 µM (inactive) | > 100 µM (inactive) | > 100 µM (inactive) | > 100 µM (inactive) | > 100 µM (inactive) | > 100 µM (inactive) | > 100 µM (inactive) | 59.7 µM (inactive) | > 100 µM (inactive) | > 100 µM (inactive) | > 100 µM (inactive) | > 100 µM (inactive) | > 100 µM (inactive) | > 100 µM (inactive) |  | > 100 µM (inactive) | > 100 µM (inactive)
14 | CC1=C(C(=O)NCc2ccccc2)C(c2ccc(C3C(C(=O)NCc4ccccc4)=C(C)NC(C)=C3C(=O)NCc3ccccc3)cc2)C(C(=O)NCc2ccccc2)=C(C)N1 | 7.57 µM (inactive) | 15.2 µM (inactive) | 17.7 µM (inactive) | 6.27 µM (inactive) | 18 µM (inactive) | 15 µM (inactive) | 17.8 µM (inactive) | > 10 µM (inactive) |  | 16.1 µM (inactive) | 10.4 µM (inactive) | 11.5 µM (inactive) | 5.61 µM (inactive) | 24.3 µM (inactive) | 5.75 µM (inactive) | 18.4 µM (inactive) | 28.6 µM (inactive)
15 | CC(Oc1ccc(OCC2CCCCC2)cc1)C(=O)N(CCO)CCO (stereo not drawn) |  | > 100 µM (inactive) | > 100 µM (inactive) | > 100 µM (inactive) | > 100 µM (inactive) | > 100 µM (inactive) |  | 92.9 µM (inactive) | > 100 µM (inactive) | > 100 µM (inactive) | > 100 µM (inactive) | > 100 µM (inactive) | > 100 µM (inactive) | > 100 µM (inactive) | > 100 µM (inactive) | > 100 µM (inactive) | > 100 µM (inactive)
16 | Clc1ccc(C[P+](c2ccccc2)(c2ccccc2)c2ccccc2)cc1Cl | 1.55 µM (inactive) | 4.4 µM (inactive) | 12.6 µM (inactive) | 1.03 µM (active) | 2.51 µM (inactive) | 2.14 µM (inactive) | 1.62 µM (inactive) | 1.77 µM (inactive) | 1.55 µM (inactive) | 1.42 µM (inactive) | 2.06 µM (inactive) | 3.67 µM (inactive) | 1.91 µM (inactive) | 4.49 µM (inactive) |  | 2.15 µM (inactive) | 2.34 µM (inactive)
17 | C=C(C=O)[C@@H]1C2OC(=O)C(=C)[C@@H]2CC(O)[C@@]1(C)CC (stereo partly drawn) | 5.66 µM (inactive) | 11.5 µM (inactive) | 17.1 µM (inactive) | 2.25 µM (inactive) | 10.7 µM (inactive) | 11.9 µM (inactive) | 2.33 µM (inactive) | > 100 µM (inactive) | 15.8 µM (inactive) | 6.78 µM (inactive) | 6.71 µM (inactive) | 3.83 µM (inactive) | 6.75 µM (inactive) | 32.8 µM (inactive) | 2.48 µM (inactive) | 13.2 µM (inactive) | 21.2 µM (inactive)
